Source: ChEMBL document CHEMBL1201862, “PubChem BioAssay data set” (2004)
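In this assay, cells in 96-well plates receive the compound at five concentrations for 48 hours. Endpoints are linearly interpolated between the surrounding concentrations. GI50 = concentration required for 50% inhibition of growth.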 Activity calls are given as the source filed them. No stated cut-off is given here; in the data, active = GI50 up to about 1.1 µM and inactive = higher.

Tests used:
Assay in all cases: NCI anticancer screen, dose series, 48 h
786-0 = test system: 786-0
A498 = test system: A498
A549 = test system: A549
ACHN = test system: ACHN
CAKI-1 = test system: CAKI-1
CCRF-CEM = test system: CCRF-CEM
COLO 205 = test system: COLO 205
DLD-1 = test system: DLD-1
DMS-114 = test system: DMS-114
DMS-273 = test system: DMS-273
EKVX = test system: EKVX
HCC 2998 = test system: HCC 2998
HCT-116 = test system: HCT-116
HCT-15 = test system: HCT-15
HOP-18 = test system: HOP-18
HOP-62 = test system: HOP-62
HOP-92 = test system: HOP-92
HT-29 = test system: HT-29
IGROV-1 = test system: IGROV-1
K562 = test system: K562
KM-20L2 = test system: KM-20L2
KM12 = test system: KM12
LOX IMVI = test system: LOX IMVI
M14 = test system: M14
M19-MEL = test system: M19-MEL
Malme-3M = test system: Malme-3M
NCI-H226 = test system: NCI-H226
NCI-H23 = test system: NCI-H23
NCI-H460 = test system: NCI-H460
OVCAR-3 = test system: OVCAR-3
OVCAR-4 = test system: OVCAR-4
OVCAR-5 = test system: OVCAR-5
OVCAR-8 = test system: OVCAR-8
RPMI-8226 = test system: RPMI-8226
SF-268 = test system: SF-268
SF-295 = test system: SF-295
SF-539 = test system: SF-539
SK-MEL-28 = test system: SK-MEL-28
SK-MEL-2 = test system: SK-MEL-2
SK-MEL-5 = test system: SK-MEL-5
SK-OV-3 = test system: SK-OV-3
SN12C = test system: SN12C
SNB-19 = test system: SNB-19
SNB-75 = test system: SNB-75
SNB-78 = test system: SNB-78
SW-620 = test system: SW-620
TK-10 = test system: TK-10
U-251 = test system: U-251
UACC-257 = test system: UACC-257
UACC-62 = test system: UACC-62
UO-31 = test system: UO-31
XF498 = test system: XF498
BT-549 = test system: BT-549
DU-145 = test system: DU-145
HL-60 = test system: HL-60
Hs-578T = test system: Hs-578T
LXFL 529 = test system: LXFL 529
MCF7 = test system: MCF7
MDA-MB-231 = test system: MDA-MB-231
MDA-MB-435 = test system: MDA-MB-435
MDA-N = test system: MDA-N
MOLT-4 = test system: MOLT-4
NCI-H522 = test system: NCI-H522
NCI/ADR-RES = test system: NCI/ADR-RES
PC-3 = test system: PC-3
RXF 393 = test system: RXF 393
SR = test system: SR
T47D = test system: T47D

Measured: GI50

O=c1cc2ccccc2nn1-c1ccccc1Cl
92.5 µM: HCT-15
inactive: 786-0 > 100 µM | A498 > 100 µM | A549 > 100 µM | ACHN > 100 µM | CAKI-1 > 100 µM | CCRF-CEM 86.3 µM | COLO 205 > 100 µM | DLD-1 > 100 µM | DMS-114 48.3 µM | DMS-273 78.5 µM | EKVX > 100 µM | HCC 2998 > 100 µM | HCT-116 74.5 µM | HOP-18 > 100 µM | HOP-62 > 100 µM | HOP-92 > 100 µM | HT-29 > 100 µM | IGROV-1 > 100 µM | K562 59.6 µM | KM-20L2 > 100 µM | KM12 > 100 µM | LOX IMVI > 100 µM | M14 > 100 µM | M19-MEL > 100 µM | Malme-3M > 100 µM | NCI-H226 > 100 µM | NCI-H23 67.9 µM | NCI-H460 > 100 µM | OVCAR-3 81.3 µM | OVCAR-4 > 100 µM | OVCAR-5 > 100 µM | OVCAR-8 > 100 µM | RPMI-8226 42.4 µM | SF-268 85.7 µM | SF-295 > 100 µM | SF-539 > 100 µM | SK-MEL-28 > 100 µM | SK-MEL-2 > 100 µM | SK-MEL-5 69 µM | SK-OV-3 > 100 µM | SN12C > 100 µM | SNB-19 > 100 µM | SNB-75 59.6 µM | SNB-78 > 100 µM | SW-620 > 100 µM | TK-10 > 100 µM | U-251 > 100 µM | UACC-257 > 100 µM | UACC-62 89.3 µM | UO-31 26.2 µM | XF498 27 µM

CC(=O)OCC1C(=O)OCC1C(=O)N1Cc2cc3ccccc3nc2C1 (centres undefined)
inactive: 786-0 1.58 µM | A498 5.08 µM | A549 15.3 µM | ACHN 1.36 µM | BT-549 2.17 µM | DLD-1 1.61 µM | DMS-114 13.6 µM | DMS-273 5.09 µM | DU-145 4.5 µM | EKVX 8.05 µM | HCC 2998 10.4 µM | HCT-116 1.27 µM | HOP-18 2.47 µM | HOP-62 16.6 µM | HOP-92 1.24 µM | HT-29 2.78 µM | Hs-578T 7.14 µM | IGROV-1 10.1 µM | KM-20L2 3.84 µM | KM12 16.2 µM | LOX IMVI 2.45 µM | LXFL 529 1.8 µM | M14 1.56 µM | M19-MEL 8.05 µM | MCF7 1.48 µM | MDA-MB-231 6.4 µM | MDA-MB-435 2.42 µM | MDA-N 2.75 µM | MOLT-4 1.44 µM | Malme-3M 1.46 µM | NCI-H226 5.96 µM | NCI-H23 3.39 µM | NCI-H460 13.3 µM | OVCAR-3 1.57 µM | OVCAR-4 1.65 µM | OVCAR-5 5.69 µM | OVCAR-8 3.2 µM | PC-3 7.45 µM | RPMI-8226 1.37 µM | RXF 393 1.17 µM | SF-268 7.41 µM | SF-295 16.1 µM | SF-539 6 µM | SK-MEL-28 2.55 µM | SK-MEL-2 8.15 µM | SK-MEL-5 10.2 µM | SK-OV-3 16.7 µM | SN12C 5.27 µM | SNB-19 17.7 µM | SNB-75 4.58 µM | SR 1.49 µM | T47D 1.15 µM | TK-10 1.61 µM | U-251 11.3 µM | UACC-257 2.47 µM | UACC-62 3.46 µM | UO-31 3.95 µM | XF498 1.82 µM
1.95 µM: HCT-15
active: CAKI-1 0.955 µM | CCRF-CEM 0.488 µM | COLO 205 0.653 µM | HL-60 0.794 µM | K562 0.676 µM | NCI-H522 0.714 µM | NCI/ADR-RES 0.69 µM | SW-620 0.469 µM
